Each compound was assayed against T1, Human ATX protein (Homo sapiens, UniProt Q13822) (assay: ATX biochemical FRET assay with FS-3 substrate). Settings: FS-3 2 μM, ATX 1.0 μg/mL, room temperature 2 hours, fluorescence 485/538 nm.
T1 construct: made in house
Source text: ATX (Autotaxin) is a 125 KDa glycoprotein with lysophospholipase D (LPLD) activity that generates the bioactive lipid lysophosphatidic acid (LPA) from lysophosphatidylcholine (LPC). The ATX biochemical assay utilizes a FRET (fluorescence resonance energy transfer) technology platform. The fluorescence signal of FRET substrate FS-3 is quenched due to intra-molecular FRET of a fluorophore to a non-fluorescing quencher (Ferguson, C. G., et al., Org Lett. 2006 May 11; 8(10): 2023-2026, which is incorporated by reference in its entirety). ATX catalyzes the hydrolysis of the substrate which separates the dabsyl quencher from the fluorescein reporter, which becomes fluorescent. The reaction is monitored by a SpectraMax M5 (Molecular Devices, Sunnyvale, Calif.) with at excitation wavelength 485 nm and emission wavelength […].
Fatty acid free-BSA (Sigma A8806): 10 mg/ml, in H2O, stored at 4° C.
2×ATX assay buffer: 100 mM Tris, 280 mM NaCl, 10 mM KCl, 2 mM CaCl2, 2 mM MgCl2, pH 7.4.
Human ATX protein: expressed and purified in house. Stored at −80° C.
Substrate FS-3 (Echelon, L-2000): 100 μg in 77.74 μL H2O (1 mM stock), stored at −20° C.
384-well flat bottom plates—Corning #3575.
Compound dilution—All compounds were provided at 10 mM in 100% DMSO. In the first well, 2 μL of 10 mM compound was added to 78 μL of DMSO (1:40 dilution). In subsequent wells 3-fold dilution (total 10 dilutions) were performed.
1×ATX assay buffer was made up with a final concentration of 1 mg/mL fatty acid free-BSA using 2×ATX assay buffer, 10 mg/ml fatty acid free-BSA and ddH2O.
ATX protein was diluted with 1×ATX assay buffer to a concentration of 1.32 μg/mL (1.32×). 38 μL was added per well to the assay plate. The final concentration of ATX in the reaction as 1.0 μg/mL.
2 μL per well of compounds was transferred to provide the desired concentration. The plate was centrifuged, then incubated at room temperature for 30 minutes on the shaker.
FS-3 was diluted with 1×ATX assay buffer to a concentration of FS-3 of 10 μM (5×). Then, 10 μL was added per well to the assay plate. The final concentration of FS-3 in the reaction was 2 μM. The plate was centrifuged. The plate was kept shaking at room temperature for 2 hours. Because FS-3 substrate is light sensitive, plates were kept covered and protected from light.
Fluorescence was measured using SpectraMax M5 (excitation at 485 nm/emission at 538 nm, top read).

| SMILES | IC50 [nM] |
| --- | --- |
| O=C(O)C1CC2CCC(C1)N2C(=O)Cc1ccc2c(C(F)(F)F)c(O[C@H]3CC[C@@H](C(F)(F)F)CC3)ccc2c1 (relative stereo) [Example 117, 2-(2-(5-(trifluoromethyl)-6-((cis-4-(trifluoromethyl)cyclohexyl)oxy)naphthalene-2-yl)acetyl)-2-azabicyclo[1.2.3]octane-7-carboxylic acid] | ≤ 500 |
| CC(c1ccc2c(C(F)(F)F)c(O[C@H]3CC[C@@H](C(F)(F)F)CC3)ccc2c1)N1C2CCC1CC(C(=O)O)C2 (relative stereo) [Example 122, 8-(1-(5-(trifluoromethyl)-6-((cis-4-(trifluoromethyl)cyclohexyl)oxy)-naphthalene-2-yl)ethyl)-8-azabicyclo[3.2.1]octane-3-carboxylic acid] | ≤ 100 |
| CC1(C)C2CCC1(C(=O)O)C(NCc1ccc3c(C(F)(F)F)c(O[C@H]4CC[C@@H](C(F)(F)F)CC4)ccc3c1)C2 (relative stereo) [Example 123, 3-(((5-(trifluoromethyl)-6-((cis-4-(trifluoromethyl)cyclohexyl)oxy)naphthalen-2-yl)methyl)amino)-7,7-dimethylbicyclo[2.2.1]heptane-4-carboxylic acid] | ≤ 500 |
| CC(c1ccc2c(C(F)(F)F)c(O[C@H]3CC[C@@H](C)CC3)ccc2c1)N1C2CCC1CC(C(=O)O)C2 (relative stereo) [Example 124, 8-(1-(6-((cis-4-Methylcyclohexyl)oxy)-5-(trifluoromethyl)naphthalen-2-yl)ethyl)-8-azabicyclo[3.2.1]octane-3-carboxylic acid] | ≤ 100 |
| C[C@H]1CC[C@@H](Oc2ccc3cc(C(=O)N4C5CCCC4CC(C(=O)O)C5)ccc3c2C(F)(F)F)CC1 (relative stereo) [Example 125, 9-(6-((cis-4-Methylcyclohexyl)oxy)-5-(trifluoromethyl)-2-naphthoyl)-9-azabicyclo[3.3.1]nonane-3-carboxylic acid] | ≤ 250 |
| C[C@H]1CC[C@@H](Oc2ccc3cc(CN4C5COCC4CC(C(=O)O)C5)ccc3c2C(F)(F)F)CC1 (relative stereo) [Example 126, 9-((6-((cis-4-Methylcyclohexyl)oxy)-5-(trifluoromethyl)naphthalen-2-yl)methyl)-9-aza-7-oxa-bicyclo[3.3.1]nonane-3-carboxylic acid] | ≤ 250 |
| CCC(c1ccc2c(C(F)(F)F)c(O[C@H]3CC[C@@H](C)CC3)ccc2c1)N1C2CCC1CC(C(=O)O)C2 (relative stereo) [Example 127, 8-(1-(6-((cis-4-Methylcyclohexyl)oxy)-5-(trifluoromethyl)naphthalen-2-yl)propyl)-8-azabicyclo[3.2.1]octane-3-carboxylic acid] | ≤ 100 |
| CCC(c1ccc2c(C(F)(F)F)c(O[C@H]3CC[C@@H](C)CC3)ccc2c1)N1C2CCCC1CC(C(=O)O)C2 (relative stereo) [Example 128, 9-(1-(6-((cis-4-Methylcyclohexyl)oxy)-5-(trifluoromethyl)naphthalen-2-yl)propyl)-9-azabicyclo[3.3.1]nonane-3-carboxylic acid] | ≤ 100 |
| C[C@H]1CC[C@@H](Oc2ccc3cc(CN4C5CC(O)CC4CC(C(=O)O)C5)ccc3c2C(F)(F)F)CC1 (relative stereo) [Example 129, 9-((6-((cis-4-Methylcyclohexyl)oxy)-5-(trifluoromethyl)naphthalen-2-yl)methyl)-7-hydroxy-9-aza-bicyclo[3.3.1]nonane-3-carboxylic acid] | ≤ 500 |
| CC(c1ccc2c(C(F)F)c(O[C@H]3CC[C@@H](C)CC3)ccc2c1)N1C2CCCC1CC(C(=O)O)C2 (relative stereo) [Example 132, 9-(1-(5-(difluoromethyl)-6-((cis-4-methylcyclohexyl)oxy)naphthalen-2-yl)ethyl)-9-azabicyclo[3.3.1]nonane-3-carboxylic acid] | ≤ 100 |
| CC(c1ccc2c(C(F)F)c(O[C@H]3CC[C@@H](C)CC3)ccc2c1)N1C2CCC1CC(C(=O)O)C2 (relative stereo) [Example 133, 8-(1-(5-(difluoromethyl)-6-((cis-4-methylcyclohexyl)oxy)naphthalen-2-yl)ethyl)-8-azabicyclo[3.2.1]octane-3-carboxylic acid] | ≤ 100 |
| C[C@H]1CC[C@@H](Oc2ccc3cc(CN4C5CCC4CC(C(=O)O)C5)ccc3c2C(F)F)CC1 (relative stereo) [Example 134, 8-(1-(5-(difluoromethyl)-6-((cis-4-methylcyclohexyl)oxy)naphthalen-2-yl)methyl)-8-azabicyclo[3.2.1]octane-3-carboxylic acid] | ≤ 100 |
| CCC(c1ccc2c(C(F)F)c(O[C@H]3CC[C@@H](C)CC3)ccc2c1)N1C2CCCC1CC(C(=O)O)C2 (relative stereo) [Example 135, 9-(1-(5-(difluoromethyl)-6-((cis-4-methylcyclohexyl)oxy)naphthalen-2-yl)propyl)-9-azabicyclo[3.3.1]nonane-3-carboxylic acid] | ≤ 100 |
| O=C(O)C1CC12CN(Cc1ccc3c(C(F)(F)F)c(O[C@H]4CC[C@@H](C(F)(F)F)CC4)ccc3c1)C2 (relative stereo) [Example 149, 2-((5-(trifluoromethyl)-6-((cis-4-(trifluoromethyl)cyclohexyl)oxy)naphthalen-2-yl)methyl)-2-azaspiro[3.2]hexane-5-carboxylic acid] | ≤ 250 |
| O=C(O)C1CCCC2CCN(Cc3ccc4c(C(F)(F)F)c(O[C@H]5CC[C@@H](C(F)(F)F)CC5)ccc4c3)CC21 (relative stereo) [Example 150, N-((5-(trifluoromethyl)-6-((cis-4-(trifluoromethyl)cyclohexyl)oxy)naphthalen-2-yl)methyl)-decahydroisoquinoline-8-carboxylic acid] | ≤ 250 |
| O=C(O)C1CCCC(C2CN(Cc3ccc4c(C(F)(F)F)c(O[C@H]5CC[C@@H](C(F)(F)F)CC5)ccc4c3)C2)C1 (relative stereo) [Example 159, N-(5-trifluoromethyl-6-(cis-4-trifluoromethyl-cyclohexyloxy)-naphthalen-2-ylmethyl)-3-(azetidine-3-yl)-cyclohexane-1-carboxylic acid] | ≤ 500 |
| O=C(O)C1CC2CCC1N2Cc1ccc2c(C(F)(F)F)c(O[C@H]3CC[C@@H](C(F)(F)F)CC3)ccc2c1 (relative stereo) [Example 165, 7-(5-trifluoromethyl-6-(cis-4-trifluoromethyl-cyclohexyloxy)-naphthalen-2-ylmethyl)-7-azabicyclo[2.2.1]heptane-2-carboxylic acid] | ≤ 250 |
| O=C(O)C1CC2CC(O)CC(C1)N2Cc1ccc2c(C(F)(F)F)c(O[C@H]3CC[C@@H](C(F)(F)F)CC3)ccc2c1 (relative stereo) [Example 169, 9-(5-trifluoromethyl-6-(cis-4-trifluoromethyl-cyclohexyloxy)-naphthalen-2-ylmethyl)-7-hydroxy-9-azabicyclo[3.3.1]nonane-3-carboxylic acid] | ≤ 500 |
| O=C1CC2CC(C(=O)O)CC(C1)N2Cc1ccc2c(C(F)(F)F)c(O[C@H]3CC[C@@H](C(F)(F)F)CC3)ccc2c1 (relative stereo) [Example 170, 9-(5-trifluoromethyl-6-(cis-4-trifluoromethyl-cyclohexyloxy)-naphthalen-2-ylmethyl)-7-oxo-9-azabicyclo[3.3.1]nonane-3-carboxylic acid] | ≤ 500 |
| CC[C@H]1CC[C@@H](Oc2ccc3cc(CN4C5CCCC4CC(C(=O)O)C5)ccc3c2C(F)(F)F)CC1 (relative stereo) [Example 171, 9-((6-((cis-4-ethylcyclohexyl)oxy)-5-(trifluoromethyl)naphthalen-2-yl)methyl)-9-azabicyclo[3.3.1]nonane-3-carboxylic acid] | ≤ 100 |
| CC[C@H]1CC[C@@H](Oc2ccc3cc(CN4C5CCC4CC(C(=O)O)C5)ccc3c2C(F)(F)F)CC1 (relative stereo) [Example 172, 8-((6-((cis-4-ethylcyclohexyl)oxy)-5-(trifluoromethyl)naphthalen-2-yl)methyl)-8-azabicyclo[3.2.1]octane-3-carboxylic acid] | ≤ 250 |
| CC[C@H]1CC[C@@H](Oc2ccc3cc(C(C)N4C5CCCC4CC(C(=O)O)C5)ccc3c2C(F)(F)F)CC1 (relative stereo) [Example 175, 9-(1-(6-((cis-4-ethylcyclohexyl)oxy)-5-(trifluoromethyl)naphthalen-2-yl)ethyl)-9-azabicyclo[3.3.1]nonane-3-carboxylic acid] | ≤ 100 |
